According to patent EP0977755B1, “HETEROCYCLIC COMPOUNDS AND THEIR PREPARATION AND USE” (NOVO NORDISK A/S, priority 1997, dated 1998):
pEC50: −log10 of the molar value. Where a name gives a salt, the structure may show the parent alone. Read-outs that look alike come from different tables or passages of the source.

Molecular target: T1, m1 muscarinic receptor (Rattus norvegicus, UniProt P08482)
T1 construct: expressed in transfected cells; host or cells: A9 L cells (mouse fibroblast line)
T1 sequence (P08482 1-460): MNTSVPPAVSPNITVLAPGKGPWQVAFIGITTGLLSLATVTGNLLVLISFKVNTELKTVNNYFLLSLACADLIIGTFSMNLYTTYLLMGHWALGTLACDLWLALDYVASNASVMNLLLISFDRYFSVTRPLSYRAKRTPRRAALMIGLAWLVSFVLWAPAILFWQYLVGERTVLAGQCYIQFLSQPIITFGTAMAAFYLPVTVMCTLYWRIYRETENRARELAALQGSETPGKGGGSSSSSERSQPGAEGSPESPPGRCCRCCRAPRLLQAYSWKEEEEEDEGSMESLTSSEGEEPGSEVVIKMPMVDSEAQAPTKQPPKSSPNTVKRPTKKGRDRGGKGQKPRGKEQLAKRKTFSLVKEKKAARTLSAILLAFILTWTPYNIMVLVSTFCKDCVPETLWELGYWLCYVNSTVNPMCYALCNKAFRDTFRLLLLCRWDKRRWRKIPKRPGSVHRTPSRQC
Experiment: IP hydrolysis in A9 L cells cloned with the genetic m1 muscarinic receptor
Assay type: cell-based, human and rat
Conditions: for Emax: A9L-m1, 0.75 h, percentage of total [3H]IP accumulated in the presence of 100 µM carbachol stimulation, 37°C for 45 min, read-out: % PI (efficacy); for pEC50: read-out: EC50

[1] = IP hydrolysis, seven point curves, three separate experiments

Description: IP hydrolysis in A9 L cells cloned with the genetic m, muscarinic receptor: A9 L cells transfected with human and rat m, muscarinic receptors (Dörje et al., 1991; Jones et al., 1988), were cultured to confluence in 75-ml flasks containing Dulbecco's modified essential media. Cells were prelabeled with 1 µCi/ml of myo(2-[^3H]inositol (Amersham Inc., 16.3 Ci/mmol) for 48 hr before assaying. On the day of assay, cells were detached using a 30-sec exposure to 0.25% trypsin in 1 mM EDTA. The cells were collected by centrifugation (300 x g for 5 min) and resuspended in oxygenated HEPES buffer containing 10 mM LiCl (NaCl 142 mM, KCl 5.6 mM, CaCl2 2.2 mM, MgCl2 1 mM, NaHCO3 3.6 mM, D-glucose 5.6 mM and Na^+ HEPES 30 mM, pH 7.4). Cells were incubated at 37°C for 45 min in the presence of varying concentrations of test compounds. Total IP hydrolysis was determined using the method of Schoepp and Johnson (1988). […] Half-maximal (EC50) values were determined from the mean (±S.D.) of seven point curves determined from three separate experiments.

| Emax | pEC50 [1] | Compound | EC50 (EC50, nM, IP hydrolysis, seven point curves, three separate experiments) |
| --- | --- | --- | --- |
| 102% | 6.99 | CC(C#Cc1cccs1)Oc1nsnc1[C@H]1CN2CCC[C@H]1C2 (stereo partly drawn) [Compound 47, Exo (5R,6R)-6-(3-(3-(2-Thienyl)-1-methyl-2-propyn-1-yloxy)-1,2,5-thiadiazol-4-yl)-1-azabicyclo[3.2.1]octane, (+)-tartrate] |  |
| 96% | 8.15 | CC(C#Cc1ccsc1)Oc1nsnc1[C@H]1CN2CCC[C@H]1C2 (stereo partly drawn) [Compound 48, Exo (5R,6R)-6-(3-(3-(3-Thienyl)-1-methyl-2-propyn-1-yloxy)-1,2,5-thiadiazol-4-yl)-1-azabicyclo[3.2.1]octane, (+)-tartrate] |  |
| 100% | 9.15 | C(#Cc1cccs1)COc1nsnc1[C@H]1CN2CCC[C@H]1C2 [Compound 49, Exo (5R,6R)-6-(3-[3-(2-Thienyl)-2-propyn-1-yloxy]-1,2,5-thiadiazol-4-yl)-1-azabicyclo[3 2 1]octane, oxalate] |  |
| 101% | 8.70 | C(#Cc1ccsc1)COc1nsnc1[C@H]1CN2CCC[C@H]1C2 [Compound 50, Exo (5R,6R)-6-(3-[3-(3-Thienyl)-2-propyn-1-yloxy]-1,2,5-thiadiazol-4-yl)-1-azabicyclo[3.2.1]octane, oxalate] |  |

More lines, now with the values behind:

| Compound | Emax | pEC50 [1] | EC50 (EC50, nM, IP hydrolysis, seven point curves, three separate experiments) |
| --- | --- | --- | --- |
| Clc1ccc(C#CCOc2nsnc2[C@H]2CN3CCC[C@H]2C3)cc1 [Compound 44, Exo (5R,6R)-6-(3-(3-(4-Chlorophenyl)-2-propyn-1-yloxy)-1,2,5-thiadiazol-4-yl)-1-azabicyclo[3.2.1]octane, (+)-tartrate] | 81% | 7.49 |  |
| COc1cccc(C#CC(Oc2nsnc2[C@H]2CN3CCC[C@H]2C3)C(C)C)c1 (stereo partly drawn) [Compound 45, Exo (5R,6R)-6-(3-(1-(3-Methoxyphenyl)-4-methyl-1-pentyn-3-yloxy)-1,2,5-thiadiazol-4-yl)-1-azabicyclo[3 2.1]octane, (+)-tartrate] | 66% | 8.10 |  |
| O=C1CCCN1CC#CCN1CCCC1 [oxotremorine, reference compound] |  |  | 16300 nM |
